What was measured:
wild-type 80 queC RNA = experiment: In-line probing analysis of wild-type 80 queC RNA; type: binding, B. subtilis; conditions: for structure modulation: wild-type 80 queC, 200 μM
Description: This possibility was examined by comparing the ligand binding characteristics of a wild-type queC construct (80 queC) with those of two mutant RNAs in which absolutely conserved cytidine residues were individually replaced with uridines (FIG. 6a). 2,6-diaminopurine was included in the panel of test compounds since it was previously established that the 2-amino group was critical for ligand recognition by the preQ1 aptamer (FIG. 4c). It was therefore anticipated that compounds lacking this moiety, such as adenine or 7-aminomethyl-7-deazaadenine, might not bind detectably, despite their potential for base pairing with a uridyl discriminator residue.
(§1) In-line probing analysis. […] .

[1] = system: M1 RNA (80 queC, cytidine 34 replaced with uridine); experiment: In-line probing analysis of 80 queC mutant M1; type: binding, B. subtilis; conditions: for structure modulation: 200 μM
[2] = system: queC RNA construct containing the analogous C34U mutation; experiment: In-line probing of a queC RNA construct with the analogous C34U mutation; type: binding; conditions: concentrations as high as 1 mM
Description: as §1

106 queC RNA = experiment: Equilibrium dialysis, competition with 3H-guanine; type: binding, B. subtilis; conditions: 100 nM 3H-guanine, 20 μM RNA, unlabeled compound at a concentration exceeding that of the RNA
Description: To provide additional support for a specific physical interaction between preQ1 and the queC RNA motif, competitive binding experiments were done using an equilibrium dialysis apparatus containing two chambers separated by a permeable membrane with a molecular weight cut-off of 5000 Daltons (FIG. 4d). Because guanine is recognized by the queC motif with nanomolar affinity (FIG. 4c), we first added ^3H-guanine and a molar excess of 106 queC RNA individually to the respective chambers. […].
Samples containing either 100 nM ^3H-guanine or 20 μM 106 queC RNA, each prepared in the same buffer solution used for in-line probing, were added in 30 μL volumes to opposite chambers of a DispoEquilibrium Dialyzer (ED-1, Harvard Bioscience). Following equilibration at 25° C. for 10-15 h, aliquots of 5 μL were withdrawn and quantitated with a liquid scintillation counter. For competitive binding experiments, 3 μL of buffer containing 1 mM unlabeled test compound was subsequently delivered to the RNA-containing chamber, while the same volume of buffer was added to the opposite chamber. After another equilibration period, 5 μL aliquots were again removed to assess the distribution of ^3H-guanine.

[3] = molecular target: 52 queC RNA (B. subtilis queC element); experiment: In-line probing analysis of 52 queC RNA; type: binding; conditions: in-line probing over a range of ligand concentrations, read-out: Kd (apparent)
Description: RNA construct 52 queC (FIG. 4a) was used to examine the degree of ligand selectivity of the B. subtilis queC element. Affinities for various purine compounds were determined by subjecting 5′ ^32P-labeled 52 queC to in-line probing analyses using a range of ligand concentrations, followed by the quantitative analysis of the levels of ligand-dependent structure modulation.
A more detailed understanding of the molecular contacts involved in ligand recognition by 52 queC was obtained by determining the apparent Kd values for a series of purine analogs (FIG. 4c).

SMILES | structure modulation (wild-type 80 queC RNA) | structure modulation ([1]; M1 (C34U)) | competition with 3H-guanine sequestration in the RNA chamber (106 queC RNA) | Kd [3] | other results
Nc1nc(N)c2[nH]cnc2n1 [2,6-diaminopurine] | Structural changes in this construct are also induced | key changes are observed | – | – | Kd (wild-type 80 queC RNA; 80 queC): > 300000 nM; lowest concentration at which alterations in structure are detected (wild-type 80 queC RNA; 80 queC): 10 µM; relative loss in binding affinity ([1]; C34U mutant with 2,6-diaminopurine versus wild-type queC RNA with guanine): more than 600 fold; Kd ([1]; M1 (C34U), data not shown): > 300000 nM
NCC1C=Nc2ncnc(N)c21 (stereo not shown) [7-aminomethyl-7-deazaadenine] | – | – | – | – | modulation of RNA structure [2]: fail to modulate the structure
Nc1nc2c(c(=O)[nH]1)CC=N2 [7-deazaguanine] | – | – | competitively reversed | – | –
Nc1ncnc2nc[nH]c12 [adenine] | does not result in structure modulation | failure of adenine to induce any conformational response | did not serve as a competitor | – | binding to M1 RNA ([1]; M1 (C34U), in words): absence of adenine binding
Nc1nc2nc[nH]c2c(=O)[nH]1 [guanine] | structure modulation occurs | – | competitively reversed | ~500 nM | –
N#CC1C=Nc2nc(N)[nH]c(=O)c21 (stereo not shown) [preQ0, 7-cyano-7-deazaguanine] | – | – | – | ~100 nM | –
